Results as given in patent publication US20200368322A1, “METHODS OF IDENTIFYING AND USING AGENTS FOR TREATING DISEASES ASSOCIATED WITH INTESTINAL BARRIER DYSFUNCTION” (Yeda Research and Development Co. Ltd., priority 2018, published 2020).

Legend:
[1] = tested on: tight junctions of Caco2 cells; assay: Caco2 tight junction morphology (cingulin or ZO-1 staining, tortuosity); format: cell-based, human
Method: (§1) CaCo-2 cells were purchased from ATCC. Cells were routinely grown in regular tissue culture medium (DMEM, 10% FCS, penicillin/streptomycin, GlutaMAX). For experiments with differing glucose concentrations, cells were routinely cultured in low-glucose DMEM (1 g/l glucose). Cells were seeded onto 96-well glass-bottom plates coated with either fibronectin or collagen 70 000 cells/well and allowed to grow for 24 hours to form confluent monolayer before indicated treatments.
(§2) For high resolution images of manually selected representative fields, a DeltaVision wide field fluorescent microscope (GE Healthcare) equipped with 40×UPlanFLN or 60×/1.42 PlanApo N oil objective (Olympus) was used. For multi-well plate scanning, the following automated imaging stations were used: DeltaVision microscope with plate scanning regiment, Hermes imaging station (IDEA bio-Medical) or ImagExpress microXL imaging station (Molecular Devices) equipped by 40× air objectives. In all cases in order to cover the curvature of apical surface of epithelial monolayer 5 μm thick z-stack was acquired around the tight junction plane (identified by best focus algorithm) and resulting image was generated as a maximum projection of all optical sections.
Cell images were segmented using Morphological Segmentation ImageJ plug-in and junction tortuosity was calculated as a ratio between junction length and Euclidian distance between its ends.

Citrobacter rodentium = format: in vivo, mouse; details: putrescine oral gavage 200 mg/kg twice daily
Method: (§3) For putrescine treatment, mice received putrescine by oral gavage with a dose of 200 mg/kg twice daily for 10 days prior to and during DSS treatment or Citrobacter rodentium infection.
A kanamycin-resistant and luciferase-expressing derivative of Citrobacter rodentium DBS100 (ICC180) was used for infection as previously described (Thaiss et al., Science. 2018 Mar. 23; 359(6382):1376-1383).
Mice were infected with 200 μl solution containing approximately 1×10^9 colony-forming units (CFU) of overnight cultured bacteria by oral gavage. Infection was monitored by enumerating stool CFU and measuring abdominal bioluminescent. For in vivo bioluminescent imaging, mice were anesthetized and bioluminescence was measured using an IVIS2000 instrument and Living Image software (Perkin Elmer). For ex vivo luminescence quantification, the whole colons were dissected, extensively washed from all luminal contents, longitudinally cut open and immediately imaged. For CFU counts, stool or tissues were collected, weighed and homogenized in sterile phosphate buffered saline (PBS−/−). Homogenates were then serially diluted in PBS−/− and plated on LB kanamycin plates, incubated overnight at 37° C. Bacterial CFUs were counted the next day, normalizing them to the stool or tissue weight.

[2] = tested on: mice with DSS-induced colitis; details: putrescine oral gavage 200 mg/kg twice daily; 2% DSS in drinking water
Method: as §3

[3] = tested on: focal adhesions of Caco2 cells; assay: Caco2 cell-matrix focal adhesions (paxillin staining); format: cell-based, human; details: 10 mM acetyl-proline, 1 mM putrescine, 10 mM histamine, 5 mM spermine
Method: as §1, §2

## NCCCCN [putrescine]
[1]; CaCo2 cells pretreated 24 hrs with disruptor, then regular culture medium for 24 hours
  recovery of the TJs after washout: partial recovery
[1]; CaCo2 cells, 24 hrs, LPS 300 ng/ml, Histamine 10 mM, putrescine 1 mM
  TJ structure after disruptor treatment: pronounced TJ disruption
[1]; Caco2 cells
  effect on tight junctions in metabolite screen: Disruption
[1]; Caco2 cells, 10 mM acetyl-proline, 1 mM putrescine, 10 mM histamine, 5 mM spermine
  tight junction morphology: distortion of tight junction morphology
Citrobacter rodentium
  effect in mice with C. rodentium infection: disruptive effect
[2]
  effect in mice with DSS-induced colitis: disruptive effect
[3]
  focal adhesions size: increase of focal adhesions size
